According to PubChem BioAssay AID624285 (Broad Institute, 2012):
Where “and” joins values, the source holds several entries; their conditions need not be identical. Equal entries are not always repeated. Calls of active or inactive are those of the source.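 How the source made its calls: active means signal-decreasing dose-response curve whose fitted half-maximal concentration is at or below twice the highest valid tested dose; inconclusive means flat fit at 30 to 70% signal loss, or poor fit; inactive means the rest.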

assay: cell viability loss after compound exposure – 24 h, luminescence, cherry-picked samples, cytotoxicity control for PDI inhibitor project, dose response (AID 624285); conditions: NIH3T3/HeLa viability, CellTiter-Glo ATP luminescence, 24 h; at 30 µM (top of the series)

| SMILES | activity change, negative = cytotoxicity |
| --- | --- |
| COc1ccc(CN(C)C[C@@H]2Oc3ccc(NC(=O)Nc4ccccc4)cc3CC(=O)N([C@H](C)CO)C[C@@H]2C)cc1 | -5.13% (inactive) |

same assay, conditions: NIH3T3/HeLa viability, CellTiter-Glo ATP luminescence, 24 h; at 35 µM (top of the series)

| SMILES | activity change, negative = cytotoxicity |
| --- | --- |
| Cc1noc(C)c1C(=O)OCC(=O)NCCc1ccc(Cl)cc1 | -14.2% (inactive) |
| CC(=O)N(C)C1(c2nnnn2CCOC(=O)Nc2ccc(Cl)cc2)CCCCC1 | -9.52% (inactive) |
| COc1ccc(N(Cc2cc3cc(OC)ccc3[nH]c2=O)C(=O)C2CCCO2)cc1 (stereo unspecified) | -10.5% (inactive) |
| C[C@@H]1O[C@@H](Oc2c(-c3ccc(O)c(O)c3)oc3cc(O)cc(O)c3c2=O)[C@H](O)[C@H](O)[C@H]1O | -1.28% (inactive) and -10.2% (inactive) |
| O=C(c1cc([N+](=O)[O-])ccc1N1CCOCC1)N1CCN(c2ccc([N+](=O)[O-])cc2)CC1 | -16.5% (inactive) |
| O=C(CN1CCN(c2ccc(O)cc2)CC1)Nc1cc(S(=O)(=O)N2CCOCC2)ccc1Cl | -13.3% (inactive) |
| COc1ccccc1NC(=O)c1ccc(NC(=O)COC(=O)c2cccnc2Cl)cc1 | -3.13% (inactive) |
| CC(NCC(O)COCc1ccc(Cl)cc1)c1ccccc1 (stereo unspecified) | -15.3% (inactive) |
| CC(Cc1ccc(O)cc1)NCC(O)c1ccc(O)c(O)c1 (stereo unspecified) | -7.22% (inactive) |
| CC(=O)OCC(=O)NCc1ccc2c(c1)OCO2 | -5.14% (inactive) |
| O=C(NC1CCCCC1)C1CCN(S(=O)(=O)c2cccs2)CC1 | -7.67% (inactive) |
| Cc1ccc(NC(=O)NC(=O)CN2CCC(C(N)=O)CC2)c(C)c1 | -4.84% (inactive) |
| CCOc1ccc2[nH]c(=O)c(CN(CCO)C(=O)CC)cc2c1 | -9.33% (inactive) |
| C[C@H](CO)N1C[C@H](C)[C@@H](CN(C)Cc2ccc(Oc3ccccc3)cc2)Oc2c(NS(C)(=O)=O)cccc2C1=O | 0.644% (inactive) |
| Cc1ccc(-c2cc(C(=O)NNC(=O)c3csc(N4CCOCC4)n3)c3ccccc3n2)cc1 | -13.2% (inactive) |
| CC(=O)C1=C(O)C(=O)N(CCc2c[nH]c3ccccc23)C1c1ccc(O)cc1 (stereo unspecified) | -8.38% (inactive) |
| C[C@]12CC[C@@H]3c4ccc(O[C@@H]5O[C@H](C(=O)O)[C@@H](O)[C@H](O)[C@H]5O)cc4CC[C@H]3[C@@H]1C[C@@H](O)[C@@H]2O | -6.13% (inactive) |
| COc1cc(C2C(C(C)=O)=C(O)C(=O)N2CCc2c[nH]c3ccccc23)ccc1O (stereo unspecified) | -5.75% (inactive) |
| O=C(c1c(O)cc(O)cc1O)C1c2c(cc(O)c3c2O[C@H](c2ccc(O)cc2)[C@@H](O)C3)OC1c1ccc(O)cc1 (stereo partly specified) | -5.6% (inactive) |
| Cc1ccc(S(=O)(=O)N2CCC(C(=O)Nc3ccc(S(=O)(=O)N4CCCC4)cc3)CC2)cc1 | -22.6% (inactive) |
| Cc1cc(=O)c(C(=O)Nc2cccc(C(=O)NC3CC3)c2)nn1-c1ccccc1 | -3.19% (inactive) |
| Cc1cc(Cl)ccc1OCc1n[nH]c(=S)n1C1CCCCC1 | -11% (inactive) |
| CCOC(=O)c1ccc2c(c1)nc(SCC(=O)N1CCCCC1)n2CC | -10.4% (inactive) |
| COc1ccc(CN(C)C[C@@H]2Oc3c(NS(C)(=O)=O)cccc3C(=O)N([C@H](C)CO)C[C@H]2C)cc1 | 2.2% (inactive) |
| CCCCNC(=O)N1CCN(C(=O)C2CCCO2)CC1 (stereo unspecified) | -4.25% (inactive) |

| SMILES | activity change, negative = cytotoxicity |
| --- | --- |
| O=C(NCc1ccccn1)Nc1cccc(Cl)c1 | -8.23% (inactive) |
| O=C(c1ccco1)N1CCN(Cc2cc(=O)oc3cc(O)ccc23)CC1 | -18% (inactive) |
| Cc1ccc2c(=O)n3c(nc2c1)C(Cc1ccc(O)cc1)NC(=O)c1cccnc1-3 (stereo unspecified) | -12.6% (inactive) |
| O=C(NN1CC(C(=O)OCc2ccccc2F)CC1=O)c1ccccc1 (stereo unspecified) | -2.89% (inactive) |
| CCOc1ccc2nc(NS(=O)(=O)Cc3ccccc3)sc2c1 | -6.13% (inactive) |
| O=C(N/N=C/c1ccc(O)cc1)NC12CC3CC(CC(C3)C1)C2 | -14.1% (inactive) |
| COc1cccc(NC(=O)CN(C)C(=O)/C=C/c2cc(OC)ccc2OC)c1 | -4.31% (inactive) |
| CCS(=O)(=O)c1ccc2oc(SCC(=O)NC(C)C3CC4CCC3C4)nc2c1 (stereo unspecified) | -13.9% (inactive) |
| CCOC(=O)c1c(CN(CC)CC)n(C)c2cc(Br)c(O)cc12 | -10.4% (inactive) |
| Cc1noc(C)c1S(=O)(=O)Nc1ccc2c(c1)CC(=O)N([C@H](C)CO)C[C@H](C)[C@H](CN(C)S(=O)(=O)c1ccc(F)cc1)O2 | 0.678% (inactive) and -3.98% (inactive) |
| COc1ccc(CNC(=O)c2ccc(CS(=O)Cc3cccc(Cl)c3)o2)cc1 (stereo unspecified) | -9.18% (inactive) |
| Cc1c(-n2cc(C(=O)c3ccccc3O)cc(C#N)c2=O)c(=O)n(-c2ccccc2)n1C | -5.22% (inactive) |
| CCN1C(=O)C2C(c3ccccc3F)NC(Cc3ccc(O)cc3)(C(=O)OC)C2C1=O (stereo unspecified) | -13.9% (inactive) |
| Cc1ccc(C)c(NS(=O)(=O)c2c(C)nn(C)c2C)c1 | -1.82% (inactive) |
| Cc1c(C(=O)N2CCOCC2)sc2ncn(CC(=O)N3CCC(C)CC3)c(=O)c12 | -2.62% (inactive) |
| O=C(NC(Cc1ccc(O)cc1)C(=O)N=Nc1c(O)[nH]c2ccccc12)c1ccccc1 (stereo unspecified) | -6.54% (inactive) |
| CCOc1ccc(NC(=O)CCc2nnc3ccc(N4CCN(C)CC4)nn23)cc1 | -6.93% (inactive) |
| O=c1[nH]c(C2CCN(S(=O)(=O)c3ccc(C(F)(F)F)cc3)CC2)nc2c1nnn2Cc1ccc(F)cc1 | -22.8% (inactive) |
| Cc1c(O)ccc2c(CC(=O)N[C@@H](Cc3c[nH]c4ccccc34)C(=O)O)cc(=O)oc12 | -8.56% (inactive) |
| O=C1CCC(=O)N1CCc1c[nH]c2ccccc12 | -6.09% (inactive) |
| O=C(Nc1ccccc1)c1cc(C2CCCCN2C(=O)c2ccccc2)on1 (stereo unspecified) | -15.5% (inactive) |
| O=C(NCc1cccs1)C1CC(c2ccc(F)cc2)=NO1 (stereo unspecified) | -16.4% (inactive) |
| Cc1ccc(N2CC(C(=O)Nc3nc4ccc(S(C)(=O)=O)cc4s3)CC2=O)cc1 (stereo unspecified) | -4.02% (inactive) |
| CC1(C(=O)Nc2cccc3c2CCCC3)CCN1C(=O)c1cccc(F)c1 (stereo unspecified) | -14.8% (inactive) |
| O=C(CCc1ccc(O)cc1)NN=Cc1cc(Br)ccc1O | -12.9% (inactive) |

| SMILES | activity change, negative = cytotoxicity |
| --- | --- |
| Cc1cccc(NC(=S)NCC23C=CC(O2)C2C(=O)N(c4ccc(Cl)cc4)C(=O)C23)c1 (stereo unspecified) | -20.9% (inactive) |
| Cc1ccc(N2CC(C(=O)N3CCCCCC3)CC2=O)cc1 (stereo unspecified) | -7.03% (inactive) |
| O=S(=O)(c1ccccc1)N1N=C(c2ccc(O)cc2)CC1c1ccco1 (stereo unspecified) | -18% (inactive) |
| CC[C@]12c3[nH]c4cc(-c5ccco5)ccc4c3CCN1C(=O)[C@@H](CC(=O)NCCCOC)C[C@@H]2C(=O)N1CCN(C(=O)C2CC2)CC1 | -8.63% (inactive) |
| C[C@@H]1CN([C@H](C)CO)C(=O)Cc2cc(NC(=O)Nc3ccccc3)ccc2O[C@@H]1CN(C)Cc1ccccc1 | -3.74% (inactive) |
| O=C(CNC(=O)c1n[nH]c2ccccc12)Nc1cc(Cl)ccc1Cl | -8.33% (inactive) |
| O=C(O)c1ccccc1Cc1ccc(F)c2ccccc12 | -10.5% (inactive) |
| C[C@@H]1CN([C@H](C)CO)C(=O)c2cc(NC(=O)Cc3cn(C)c4ccccc34)ccc2O[C@H]1CN(C)S(=O)(=O)c1ccc(F)cc1 | -11.7% (inactive) and -2.14% (inactive) |
| FC(F)(F)c1cccc(NC(=S)NCc2ccccn2)c1 | -2.29% (inactive) |
| COc1cccc(/C=N/NC(=O)CNC(=O)C(c2ccccc2)c2ccccc2)c1O | -15.7% (inactive) |
| CC(=O)NC1(c2nnnn2CCOC(=O)Nc2ccc(Cl)cc2)CCCCC1 | 5.78% (inactive) |
| O=C(NC(=S)Nc1cccc(NC(=O)c2ccccc2)c1)c1cccc([N+](=O)[O-])c1 | -10.7% (inactive) |
| C[C@H](CO)N1C[C@H](C)[C@H](CN(C)S(=O)(=O)c2ccc(F)cc2)Oc2ccc(NC(=O)Cc3cn(C)c4ccccc34)cc2C1=O | -6.42% (inactive) |
| CC[C@]12c3[nH]c4cc(-c5ccco5)ccc4c3CCN1C(=O)[C@@H](CC(=O)NCc1ccc(OC)c(OC)c1)C[C@@H]2C(=O)N1CCN(C(=O)C2CC2)CC1 | -17.7% (inactive) |
| COc1ccc(C2c3ccc(O)cc3Oc3ncn(CCCO)c(=N)c32)cc1 (stereo unspecified) | -8.08% (inactive) |
| CCOc1ccccc1CN1CCNC(=O)C1CC(=O)NCc1nccn1CC (stereo unspecified) | -14.3% (inactive) |
| O=C(NCCN1CCOCC1)c1cccnc1SCc1ccccc1Cl | -5.22% (inactive) |
| CC(C)Oc1cccc(C(=O)NC(=S)Nc2cccc(NC(=O)c3ccccc3Cl)c2)c1 | -18.2% (inactive) |
| CNC[C@@H]1Oc2c(NS(C)(=O)=O)cccc2C(=O)N([C@@H](C)CO)C[C@H]1C | 1.39% (inactive) |
| O=C(Cc1ccccc1)Nc1cccc(C(=O)N/N=C/c2ccco2)c1 | -4.58% (inactive) |
| NC(=O)c1ccc(NC(=O)COC(=O)c2ccc(Br)c(S(=O)(=O)N3CCOCC3)c2)cc1 | -6.39% (inactive) |
| C[C@@H](C(=O)NCc1ccccc1)N1C(=O)C2CC=CCC2C1=O (stereo partly specified) | -8.35% (inactive) |
| CN(C)c1ccc(C2(O)C(=O)c3ccccc3C2=O)cc1 | -6.27% (inactive) |
| Cc1noc(C)c1S(=O)(=O)Nc1ccc2c(c1)CC(=O)N([C@H](C)CO)C[C@@H](C)[C@H](CN(C)S(=O)(=O)c1ccc(F)cc1)O2 | 4.61% (inactive) |
| N#Cc1c(NCCCO)nc(-c2ccco2)c2c1CCCC2 | -19.8% (inactive) |
